Article PMC8667925, “New 1,2,4-oxadiazole derivatives with positive mGlu4 receptor modulation activity and antipsychotic-like properties” (Journal of Enzyme Inhibition and Medicinal Chemistry, 2021)
“Also recorded” adds a separate entry of the source. Like-named read-outs stand apart in the source and are kept apart here.

How the values were obtained:
mGlu8 receptor = molecular target: T1, mGlu8 receptor (Homo sapiens, UniProt O00222); test: cAMP accumulation assay in cells expressing mGlu8 receptor (agonist, PAM, NAM modes); assay type: cell-based; settings: 10 µM, agonist mode
T1 construct: mGlu4 receptor NM_000841, mGlu7 receptor NM_000844.2, and mGlu8 receptor NM_000845; expressed in transfected cells; host or cells: T-REx 293
T1 sequence (O00222 34-908): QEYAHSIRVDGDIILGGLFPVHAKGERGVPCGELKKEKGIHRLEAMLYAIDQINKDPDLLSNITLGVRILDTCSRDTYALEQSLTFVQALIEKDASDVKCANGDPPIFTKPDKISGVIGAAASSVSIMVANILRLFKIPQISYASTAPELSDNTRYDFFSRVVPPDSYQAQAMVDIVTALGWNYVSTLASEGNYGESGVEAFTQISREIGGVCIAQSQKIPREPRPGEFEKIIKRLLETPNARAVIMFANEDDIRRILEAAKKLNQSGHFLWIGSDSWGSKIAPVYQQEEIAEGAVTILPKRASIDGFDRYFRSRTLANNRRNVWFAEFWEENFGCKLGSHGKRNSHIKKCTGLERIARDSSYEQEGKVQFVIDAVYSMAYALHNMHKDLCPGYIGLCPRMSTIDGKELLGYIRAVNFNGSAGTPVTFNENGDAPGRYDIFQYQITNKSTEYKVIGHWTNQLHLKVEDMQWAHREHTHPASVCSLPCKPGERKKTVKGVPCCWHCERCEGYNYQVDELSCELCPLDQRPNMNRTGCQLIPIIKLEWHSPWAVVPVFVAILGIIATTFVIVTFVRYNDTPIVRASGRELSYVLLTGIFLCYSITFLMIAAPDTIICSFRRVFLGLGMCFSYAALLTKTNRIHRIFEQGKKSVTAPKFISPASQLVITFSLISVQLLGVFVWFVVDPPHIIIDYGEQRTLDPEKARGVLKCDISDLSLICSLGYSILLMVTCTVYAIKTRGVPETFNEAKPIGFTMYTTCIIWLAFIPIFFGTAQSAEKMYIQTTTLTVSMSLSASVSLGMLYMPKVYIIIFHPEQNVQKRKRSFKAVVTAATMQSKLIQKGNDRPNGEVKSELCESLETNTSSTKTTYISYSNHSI
Description: (§1) The compounds were tested in the agonist, PAM (in the presence of EC20 concentration of L-Glu) or NAM (with EC80 of L-Glu) modes of forskolin-induced cAMP using T-REx 293 cells expressing the protein of a given receptor.
(§2) Figure 4. The activity of compounds 34, 37, 49, 52, 60, 62 and reference drugs MMPIP (a selective NAM of mGlu7 receptor) and AZ12216052 (a PAM of mGlu8 receptor) tested at a concentration of 10 μM in the cAMP accumulation assay in cells expressing mGlu7 and mGlu8 receptors. The percent activity refers to two extreme FRET signals: 0% corresponds to forskolin treatment alone and 100% to maximal FRET signal for the control cells (without any treatment). A/D – agonistic activity; B/E – PAM activity measured in the presence of L-Glu at the EC20 concentration (0.1 mM for mGlu7 receptor, and 1 μM for mGlu8 receptor); C/F – NAM activity measured in the presence of L-Glu at the EC80 concentration (1 mM for mGlu7 receptor, 10 μM for Glu8 receptor).
(§3) Determination of the intracellular cAMP through a homogeneous time-resolved fluorescence (HTRF) cAMP dynamic 2 kit from Cisbio (Codolet, France) was described previously by Chruścicka et al.[91]. Briefly, cells were grown in DMEM supplemented with 10% foetal bovine serum (FBS) (tetracycline free). Forty-eight hours before the experiments, mGlu receptor expression was induced by the addition of 0.75 µg/mL tetracycline. Twenty hours before the experiment, FBS and L-Glu were removed from the medium. Thereafter, the cells were scraped and centrifuged. A cell pellet was suspended in Hanks-HEPES (130 mM NaCl, 5.4 mM KCl, 1.8 mM CaCl2, 0.8 mM MgSO4, 0.9 mM NaH2PO4, 20 mM HEPES, and 3.25 mM glucose; pH 7.4). Then, the cell suspension was incubated in the presence of 10 µM forskolin (or 3 µM forskolin for mGlu7 receptor), the agonist L-glutamate and a compound for 5 min. Next, 10 µl of the cell suspension was mixed with 5 µl of cAMP-d2 conjugate and 5 µL of anti-cAMP cryptate conjugate. After 1 h of incubation at rt, the fluorescence at 620 nm and 665 nm was read (Tecan Infinite M1000). The results were calculated as the 665 nm/620 nm ratio multiplied by 10^4. Each sample was prepared in triplicate.

mGlu4 receptor = molecular target: T2, mGlu4 receptor (Homo sapiens, UniProt Q14833); test: forskolin-induced cAMP assay, agonist mode, T-REx 293 cells; assay type: cell-based
T2 construct: mGlu4 receptor NM_000841, mGlu7 receptor NM_000844.2, and mGlu8 receptor NM_000845; expressed in transfected cells; host or cells: T-REx 293
T2 sequence (Q14833 33-912): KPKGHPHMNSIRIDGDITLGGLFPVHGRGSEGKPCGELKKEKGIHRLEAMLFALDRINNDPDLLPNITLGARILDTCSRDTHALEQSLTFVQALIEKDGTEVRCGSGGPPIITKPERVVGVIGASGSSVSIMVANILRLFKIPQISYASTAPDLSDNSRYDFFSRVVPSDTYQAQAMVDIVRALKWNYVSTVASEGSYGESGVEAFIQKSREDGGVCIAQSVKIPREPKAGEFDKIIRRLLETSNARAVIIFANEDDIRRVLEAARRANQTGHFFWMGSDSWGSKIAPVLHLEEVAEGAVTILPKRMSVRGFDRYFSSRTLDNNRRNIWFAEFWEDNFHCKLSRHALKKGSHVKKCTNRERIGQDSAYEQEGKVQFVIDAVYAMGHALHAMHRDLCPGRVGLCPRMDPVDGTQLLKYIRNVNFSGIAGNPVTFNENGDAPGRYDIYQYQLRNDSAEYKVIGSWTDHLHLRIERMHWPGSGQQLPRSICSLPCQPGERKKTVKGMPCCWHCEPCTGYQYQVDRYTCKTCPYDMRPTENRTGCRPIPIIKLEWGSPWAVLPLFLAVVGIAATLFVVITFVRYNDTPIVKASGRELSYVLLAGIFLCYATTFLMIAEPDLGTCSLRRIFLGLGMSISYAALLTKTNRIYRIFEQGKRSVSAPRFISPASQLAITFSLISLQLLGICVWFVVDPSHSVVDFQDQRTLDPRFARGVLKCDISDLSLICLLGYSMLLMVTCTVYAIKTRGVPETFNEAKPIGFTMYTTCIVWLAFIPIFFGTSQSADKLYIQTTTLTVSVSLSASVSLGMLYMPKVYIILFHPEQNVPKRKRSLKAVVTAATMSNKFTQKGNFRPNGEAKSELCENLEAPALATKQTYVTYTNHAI
Description: as §1, §3

Albino Swiss mice = test: DOI-induced head twitch test (HTR); assay type: in vivo; settings: DOI 2.5 mg/kg i.p.
Description: The compounds were dissolved in a small amount of 100% EtOH and then adjusted with 20% cyclodextrin, and the pH was adjusted to 6.0. The investigated compounds were administered intraperitoneally (i.p.) 60 min before the behavioural test. Control drugs i.e. diazepam, clozapine and imipramine (Sigma–Aldrich, St. Louis, USA), were administered i.p. 60 min before the behavioural test. Cyclodextrin (20%) was used as a vehicle. All solutions were prepared immediately prior to the experiments and were administered at a constant volume of 10 ml/kg.
The experiments were performed according to the procedure described in our previous studies[75]^,[80]. Briefly, to habituate mice to the experimental environment, each animal was transferred to a 12 cm (diameter) × 20 cm (height) glass cage lined with sawdust 30 min before treatment. Test compounds were administered intraperitoneally (i.p.) at doses of 2.5, 5, and 10 mg/kg body weight 60 min before the test was performed. The head twitch response (HTR) in mice was induced by DOI (2.5 mg/kg, i.p.). Immediately after treatment, the number of head twitches was counted during a 20 min session. Haloperidol and clozapine were used as the reference compounds at active doses of 0.2 and 5 mg/kg, respectively.

mGlu7 receptor = molecular target: T3, mGlu7 receptor (Homo sapiens, UniProt Q14831); test: cAMP accumulation assay in cells expressing mGlu7 receptor (agonist, PAM, NAM modes); assay type: cell-based; settings: 10 µM, agonist mode
T3 construct: mGlu4 receptor NM_000841, mGlu7 receptor NM_000844.2, and mGlu8 receptor NM_000845; expressed in transfected cells; host or cells: T-REx 293
T3 sequence (Q14831 35-915): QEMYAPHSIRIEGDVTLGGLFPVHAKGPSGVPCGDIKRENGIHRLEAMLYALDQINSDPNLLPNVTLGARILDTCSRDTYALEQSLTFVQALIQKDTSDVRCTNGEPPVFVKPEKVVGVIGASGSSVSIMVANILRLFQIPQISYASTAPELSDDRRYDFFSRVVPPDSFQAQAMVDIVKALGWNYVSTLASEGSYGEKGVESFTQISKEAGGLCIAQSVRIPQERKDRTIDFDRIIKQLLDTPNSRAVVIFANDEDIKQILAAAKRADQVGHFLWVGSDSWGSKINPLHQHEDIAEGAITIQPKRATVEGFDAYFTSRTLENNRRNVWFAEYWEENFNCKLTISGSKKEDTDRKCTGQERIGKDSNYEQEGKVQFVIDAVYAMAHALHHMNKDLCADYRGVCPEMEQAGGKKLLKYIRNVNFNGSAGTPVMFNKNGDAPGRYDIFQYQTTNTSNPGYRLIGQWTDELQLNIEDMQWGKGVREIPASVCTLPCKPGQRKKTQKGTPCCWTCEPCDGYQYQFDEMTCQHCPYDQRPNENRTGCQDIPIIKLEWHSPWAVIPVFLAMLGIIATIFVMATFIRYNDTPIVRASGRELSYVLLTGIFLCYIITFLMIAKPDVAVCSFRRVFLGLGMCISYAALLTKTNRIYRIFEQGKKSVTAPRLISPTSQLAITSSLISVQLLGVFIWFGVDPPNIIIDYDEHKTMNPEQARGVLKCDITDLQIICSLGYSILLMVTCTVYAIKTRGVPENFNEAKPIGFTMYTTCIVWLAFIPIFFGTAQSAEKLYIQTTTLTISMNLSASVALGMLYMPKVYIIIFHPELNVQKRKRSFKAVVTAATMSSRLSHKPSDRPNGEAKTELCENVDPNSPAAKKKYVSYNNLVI
Description: as §1, §2, §3

[1] = pharmacokinetic study, plasma and brain, after i.p. administration; assay type: in vivo, mice (male Albino Swiss); settings: mouse, 10 mg/kg i.p.; for AUC / Cmax / half-life / Tmax: male, Albino Swiss, ip; for AUC: read-out: AUC (area under the curve); for Cmax: read-out: Cmax (maximum concentration); for half-life: read-out: T1/2 (terminal elimination half-life) (converted)
Description: The pharmacokinetic properties and brain uptake of 52 were further determined in mice after i.p. administration. The compound was administered at a dose of 10 mg/kg in 3% DMSO + 20% Captisol in water. The concentration of 52 was monitored in the plasma and the brain at six time points over 6 h (Figure 5).
The method described below was successfully applied to a pharmacokinetic study of 52 in mice (male Albino Swiss) after i.p. injection. Compound 52 was administered to mice at a dose of 10 mg/kg i.p. At 0.25, 0.50, 1.0, 2.0, 4.0, and 6.0 h (three animals were used for one time point) the mice were anaesthetised by the use of Morbital (Biowet, Puławy, Poland), and the blood was collected from the portal vein to tubes containing 5% EDTA. The mice were then perfused with 0.1 M PBS to remove remaining blood from the body, and the brains were taken out for the analysis. Blood was centrifuged at 2000 rpm for 10 min at 4 °C, and the plasma was collected and frozen at −80 °C for further analysis. Plasma and tissue samples from all drug-treated animals were thawed at room temperature prior to use. Standard protocol of sample preparation: 200 µL of acetonitrile was added to the Eppendorf tubes with 50 µL of studied plasma samples or tissue homogenate. Samples were mixed for 5 min on a mixer at 25 °C and 1400 rpm. Tubes were then centrifuged at 2000 × g for 15 min at 4 °C. A total of 180 µL of each supernatant was transferred to a plate well. Finally, each sample was injected onto the LC-MS column. Calibration curve serial dilution method: Plasma was spiked with a standard at different concentrations. Acetonitrile was added. After mixing and centrifugation, the supernatant was collected.
Plasma and tissue samples from all drug-treated animals at selected time points were analysed using a previously developed non-validated LC-MS/MS method. […] LC-MS analysis was carried out on a Bruker amaZon SL mass spectrometer using positive/negative ion ESI mode. Chromatographic separation was achieved on an Ascentis Express C18 column (5 cm × 2.1 mm, […], Supelco Technologies) at room temperature with a thermostatted column oven. A gradient elution of eluents A (acetonitrile (LiChrosolv, Reag. Ph Eur) + 0.1% formic acid (Sigma Aldrich, 98–100%)) and B (water +0.1% formic acid) was used for separation. The flow rate was set at 1 ml/min. The injection volume was 20 µL, and the time of injection was 4 min.

[2] = 2.5 mg/kg i.p., 60 min before test
[3] = 10 mg/kg i.p., 60 min before test
[4] = over the doses 2.5, 5 and 10 mg/kg i.p.

Row | Structure (SMILES) | agonistic activity at mGlu8 receptor (mGlu8 receptor) | EC50 (mGlu4 receptor) | effect on DOI-induced HTR (Albino Swiss mice; [2]) | effect on DOI-induced HTR (Albino Swiss mice; [3]) | effect on DOI-induced HTR (Albino Swiss mice; [4]) | agonistic activity at mGlu7 receptor (mGlu7 receptor) | maximum brain concentration ([1]; brain) | AUC ([1]; brain) | Cmax ([1]; brain) | half-life ([1]; brain) | Tmax ([1]; brain, read-out: Tmax (converted)) | AUC ([1]; plasma) | Cmax ([1]; plasma) | half-life ([1]; plasma) | Tmax ([1]; plasma, read-out: Tmax (time at maximum observed concentration)) | maximum plasma concentration ([1]; plasma) | effect on DOI-induced HTR (Albino Swiss mice; 5 mg/kg i.p., 60 min before test)
1 | COc1cc(NC(=O)c2ccccn2)ccc1-c1noc(-c2ccccc2Cl)n1 [Compound 34] | direct agonistic activity | 1.11 µM | statistically significant effect; also recorded: significant reductions in the HTR score | statistically significant effect; also recorded: significant reductions in the HTR score | significant anxiolytic- and antipsychotic-like properties | direct agonistic activity |  |  |  |  |  |  |  |  |  |  | 
2 | COc1cc(NC(=O)c2ccccn2)ccc1-c1noc(-c2ccccc2F)n1 [Compound 37] | direct agonistic activity | 3.94 µM |  |  | significant anxiolytic- and antipsychotic-like properties; also recorded: reversed the DOI-induced effect at all investigated doses; also recorded: dose-dependent reverse effects | direct agonistic activity |  |  |  |  |  |  |  |  |  |  | 
3 | O=C(Nc1ccc(-c2noc(-c3ccccc3Cl)n2)c(Cl)c1)c1ccccn1 [Compound 52, N-(3-chloro-4-(5-(2-chlorophenyl)-1,2,4-oxadiazol-3-yl)phenyl)picolinamide] | direct agonistic activity |  |  |  | significant anxiolytic- and antipsychotic-like properties; also recorded: at all doses significantly reduced; also recorded: Clear dose-response effects | direct agonistic activity | 949.76 ng/mL | 5.64 µM·h | 2120 nM | 136 min | 30 min | 0.37 µM·h | 540 nM | 66 min | 15 min | 243.22 ng/mL | 
4 | O=C(Nc1ccc(-c2noc(-c3ccccc3Cl)n2)c(C(F)(F)F)c1)c1ccccn1 [Compound 60] | direct agonistic activity |  | significant reductions in the HTR score | significant reductions in the HTR score | significant anxiolytic- and antipsychotic-like properties | direct agonistic activity |  |  |  |  |  |  |  |  |  |  | not statistically significant
